Data reported in the NIST ThermoML archive (doi:10.1016/j.tca.2005.04.030).
Numbers after ± are expanded uncertainties.

Assays:
[1] = 101.33 kPa, Liquid; for mass density: 298.1 K, Vibrating tube method; for speed of sound: 298.15 K, Anton Paar DSA 48
[2] = refractive index (Na D-line) (dimensionless); details: 298.1 K, 101.33 kPa, Liquid

mass density [1]	speed of sound [1]	refractive index ([2]; Anton Paar DSA 48)	refractive index ([2]; ATAGO RX-1000)	SMILES
757.57 ± 0.17 kg/m3	1113 ± 2 m/s	1.3917 ± 5e-05	–	CCCCOC(C)(C)C [butane, 1-(1,1-dimethylethoxy)-]
785.22 ± 0.25 kg/m3	1143 ± 2 m/s	–	1.3592 ± 0.00011	CCO [ethanol]
786.63 ± 0.25 kg/m3	1101 ± 2 m/s	–	1.3264 ± 0.0002	CO [methanol]
–	–	–	1.3325 ± 8e-05	O [water]
